Assay results taken from patent publication US20150336948A1, “Isotopically Labeled Biaryl Urea Compounds” (Merck Sharp & Dohme Corp., priority 2012, published 2015).
Read-outs that look alike come from different tables or passages of the source.

How the values were obtained:
[1] = target: T1, In Vitro Assembled Tau filaments (full length tau 4R2N, T40 isoform) (Homo sapiens, UniProt P10636); test: Displacement binding assay with in vitro assembled tau filaments; settings: 0.4 uM tau filaments
T1 construct: full length tau monomer (4R2N, T40 isoform)
T1 sequence (P10636 1-441 isoform P10636-8): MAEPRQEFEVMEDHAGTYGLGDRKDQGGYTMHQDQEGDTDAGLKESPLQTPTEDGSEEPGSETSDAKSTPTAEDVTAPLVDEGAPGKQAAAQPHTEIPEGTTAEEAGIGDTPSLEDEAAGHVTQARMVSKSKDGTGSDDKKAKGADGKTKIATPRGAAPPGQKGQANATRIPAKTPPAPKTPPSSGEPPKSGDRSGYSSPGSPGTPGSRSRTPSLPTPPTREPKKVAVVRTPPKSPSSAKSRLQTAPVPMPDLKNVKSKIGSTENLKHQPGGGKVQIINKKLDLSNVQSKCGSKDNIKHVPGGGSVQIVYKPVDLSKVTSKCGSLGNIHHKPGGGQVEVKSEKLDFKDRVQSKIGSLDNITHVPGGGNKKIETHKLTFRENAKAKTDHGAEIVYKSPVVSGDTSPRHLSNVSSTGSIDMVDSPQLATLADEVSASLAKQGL
Description: In Vitro assembled tau filaments were prepared similarly to Barghorn et al, Methods Mol Biol. 2005, 299, 35-51.
Briefly, Twenty micromolar (uM) of full length tau monomer (4R2N, T40 isoform), was incubated at 37 degrees shaking for 14 days with 50 uM heparin, 2 mM DTT, and 0.04% sodium azide in 100 mM Sodium Acetate (NaOAC) buffer pH7.0. All concentrations listed are final concentrations. Samples of the mixture were taken at 0, 10, and 14 days, and filament formation was examined using Thioflavin T binding compared to a control sample of filaments.
For the displacement binding assay, compound dilutions (1000×) were added into the 96-well plate (150 nL per well). 100% (1 uM self-block (unlabeled Compound—Example 1 or Example 4 dependent on the ^3H-labeled input compound—Example 6 or 7, respectively)) and 0% (DMSO) controls were included in each assay plate. In Vitro Assembled Tau filaments diluted in assay buffer (PBS+0.1% BSA) were added at a final concentration of 0.4 uM per well. Subsequently, either ^3H compound of Example 7 or ^3H compound of Example 6 was added to each well at a final concentration of 8 nM. Incubation was carried out at room temperature (25° C.) for 90 minutes, and then the assay samples were filtered onto GF/B filter plates that had been blocked at least 1 hour with 50 uL 0.2% PEI using a PerkinElmer Filtermate 96-well plate harvester, washing 6 times with ice cold buffer (5 mM Tris, pH 7.4). Plates were dried in a vacuum oven at 37° C. for 1 hour, then plates were sealed on the back, and 50 ul of Microscint-20 was added to each well. The tops of the plates were sealed, and then plates were read in a PerkinElmer TopCount. Data analysis was performed using internally developed software (Assay Data Analyzer).

[2] = test system: amyloid plaques; test: In vitro autoradiography, human AD brain cortex slice (amyloid plaques, 6E10 stain on adjacent slice); type: binding; settings: adjacent slice 6E10 positive
Description: (§1) To assess presence of amyloid plaques and NFTs in the tested human brain samples, the adjacent human AD brain slices were used for autoradiography (ARG) and immunohistochemistry (IHC) studies. ARG was done using isotopically labeled compounds which bind selectively to amyloid plaques or NFTs. IHC was performed with antibodies for amyloid-beta (Aβ) (6E10 (Covance)) and phosphorylated tau (p-tau) (PHF6 (Covance)). Tissue homogenate binding was performed using human AD brain homogenates of cerebral cortex. Human brains from donor without neurological disorder were used as control in the same study. […]
(§2) The frozen human brain samples of Alzheimer's disease (AD) and non-AD were purchased from Analytic Biological Services Inc. Frozen brain slices (20 μm thickness) were prepared using a cryostat (Leica CM3050) and kept in sequential order. […] Total binding of radioligand in a brain slices was defined in the absence of competitor, and non-specific binding (NSB) was determined in the presence of competitor (1.0 μM unlabeled self block). […] After one week exposure, the plates were scanned in Fuji BAS 5000 Scanner, and the scanned images were analyzed using MCID 7.0 software. [^3H]-microscales (Amersham Biosciences, GE), were used for quantification of radioligand binding density. FIGS. 3 and 4 have ARG images detected through this method.

[3] = test system: NFTs; test: In vitro autoradiography, human AD brain slice, hippocampus (NFTs, PHF6 stain on adjacent slice); type: binding
Description: as §1, §2

[4] = radioligand [3H] Example 7 at 8 nM, read-out: IC50, displacement of [3H] compound of Example 7 from in vitro assembled tau filaments

SMILES | IC50 [1, 4] [µM] | also measured
COc1ccccc1NC(=O)Nc1ccc(-c2cn(C)c3cnccc23)nc1 [Example 4, 1-(2-methoxyphenyl)-3-(6-(1-methyl-1H-pyrrolo[2,3-c]pyridin-3-yl)pyridin-3-yl)urea] | 0.0202 | 
Cn1cc(-c2ccc(NC(=O)Nc3ccccc3O)cn2)c2ccncc21 [Example 5, 1-(2-hydroxyphenyl)-3-(6-(1-methyl-1H-pyrrolo[2,3-c]pyridin-3-yl)pyridin-3-yl)urea] | 0.092 | 
COc1ccccc1NC(=O)Nc1ccc(-c2cn(C)c3cnccc23)cc1 [Example 1, 1-(2-methoxyphenyl)-3-(4-(1-methyl-1H-pyrrolo[2,3-c]pyridin-3-yl)phenyl)urea] | 0.0136 | IC50 ([1]; radioligand [3H] Example 6 at 8 nM, self-block, read-out: apparent IC50, inhibition of [3H] compound of Example 6 binding to in vitro assembled filaments): 0.003 µM
[3H]c1cc(-c2cn(C)c3cnccc23)cc([3H])c1NC(=O)Nc1c([3H])cccc1OC [Example 6, [^3H]-(2-methoxyphenyl)-3-(4-(1-methyl-1H-pyrrolo[2,3-c]pyridin-3-yl)phenyl)urea] |  | binding to amyloid plaques in cortex region (autoradiography) [2]: lack of; autoradiographic binding pattern compared with PHF6 stain of NFTs in hippocampus ([3]; 5 nM radioligand, human AD brain slice, adjacent slice IHC): consistent with the autoradiographic binding pattern; specificity for Tau over Aβ (ARG evidence) ([3]; human AD brain slices, FIGS. 3 and 4): measurable specificity
COc1ccccc1NC(=O)Nc1ccc(-c2cnn(C)c2)cc1 [Example 3, 1-(2-methoxyphenyl)-3-(4-(1-methyl-1H-pyrazol-4-yl)phenyl)urea] | 0.0336 | 
COc1ccccc1NC(=O)Nc1ccc(-c2cnn3c2CCC3)cc1 [Example 2, 1-(4-(5,6-dihydro-4H-pyrrolo[1,2-b]pyrazol-3-yl)phenyl)-3-(2-methoxyphenyl)urea] | 0.0251 | 
